Data reported in ChEMBL document CHEMBL4152357, “Efflux pump inhibition by 11H-pyrido[2,1-b]quinazolin-11-one analogues in mycobacteria” (Bioorg Med Chem, 2018).
Converted amounts (≈) assume the structure as drawn. The source made the active and inactive calls. The rule behind the calls is not given here.

Experiments:
[1] = tested on: Mycolicibacterium smegmatis; assay: Growth inhibition of Mycobacterium smegmatis MC2 155 ATCC 700084 after 72 hrs by MTT assay; format: organism-based
[2] = biological target: T1, Multidrug efflux pump LfrA (Mycobacterium smegmatis (strain ATCC 700084 / mc(2)155)) (UniProt A0R5K5); assay: Inhibition of LfrA in Mycobacterium smegmatis MC2 155 ATCC 700084 assessed as decrease in norfloxacin MIC at 12.5 ug/ml after 72 hrs by MTT assay relative to control; conditions: Mycolicibacterium smegmatis MC2 155
T1 sequence (whole entry): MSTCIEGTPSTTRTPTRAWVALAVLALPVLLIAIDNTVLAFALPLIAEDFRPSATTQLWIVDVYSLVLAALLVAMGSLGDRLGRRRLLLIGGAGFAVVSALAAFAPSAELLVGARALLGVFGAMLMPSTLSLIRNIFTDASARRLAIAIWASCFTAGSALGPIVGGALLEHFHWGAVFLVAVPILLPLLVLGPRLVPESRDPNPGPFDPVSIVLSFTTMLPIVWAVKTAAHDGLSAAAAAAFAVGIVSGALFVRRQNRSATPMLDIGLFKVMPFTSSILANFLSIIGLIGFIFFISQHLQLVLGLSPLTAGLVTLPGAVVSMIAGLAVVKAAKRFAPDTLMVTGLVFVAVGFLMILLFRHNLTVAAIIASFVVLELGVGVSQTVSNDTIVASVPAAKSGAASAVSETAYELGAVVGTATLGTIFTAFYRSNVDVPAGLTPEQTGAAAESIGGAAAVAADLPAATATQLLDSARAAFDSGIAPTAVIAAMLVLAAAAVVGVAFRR

[3] = biological target: T1, Multidrug efflux pump LfrA (Mycobacterium smegmatis (strain ATCC 700084 / mc(2)155)); assay: Inhibition of LfrA in Mycobacterium smegmatis MC2 155 ATCC 700084 assessed as decrease in EtBr MIC at 100 ug/ml after 72 hrs by MTT assay relative to control; conditions: Mycolicibacterium smegmatis MC2 155
[4] = biological target: T1, Multidrug efflux pump LfrA (Mycobacterium smegmatis (strain ATCC 700084 / mc(2)155)); assay: Inhibition of LfrA in Mycobacterium smegmatis MC2 155 ATCC 700084 assessed as decrease in norfloxacin MIC at 50 ug/ml after 72 hrs by MTT assay relative to control; conditions: Mycolicibacterium smegmatis MC2 155
[5] = biological target: T1, Multidrug efflux pump LfrA (Mycobacterium smegmatis (strain ATCC 700084 / mc(2)155)); assay: Inhibition of LfrA in Mycobacterium smegmatis MC2 155 ATCC 700084 assessed as potentiation of EtBr-induced bactericidal activity at 100 ug/ml after 48 hrs; conditions: Mycolicibacterium smegmatis MC2 155
CC-1 = assay: Cytotoxicity against rat CC1 cells assessed as decrease in cell survival at 200 ug/ml after 24 hrs by Alamar blue reduction assay relative to control; format: cell-based; conditions: cc-1, 24 h
[6] = Cytotoxicity against rat CC1 cells assessed as cell survival at 100 ug/ml after 24 hrs by Alamar blue reduction assay relative to control; format: cell-based, CC-1; conditions: read-out: Survival
[7] = Cytotoxicity against rat CC1 cells assessed as cell survival at 50 ug/ml after 24 hrs by Alamar blue reduction assay relative to control; format: cell-based, CC-1; conditions: read-out: Survival
[8] = biological target: T1, Multidrug efflux pump LfrA (Mycobacterium smegmatis (strain ATCC 700084 / mc(2)155)); assay: Inhibition of LfrA in Mycobacterium smegmatis MC2 155 ATCC 700084 assessed as increase in EtBr accumulation at 25 ug/ml measured every 5 mins for 35 mins by fluorometric analysis; conditions: Mycolicibacterium smegmatis MC2 155
[9] = biological target: T1, Multidrug efflux pump LfrA (Mycobacterium smegmatis (strain ATCC 700084 / mc(2)155)); assay: Inhibition of LfrA in Mycobacterium smegmatis MC2 155 ATCC 700084 assessed as increase in EtBr accumulation at 50 ug/ml measured every 5 mins for 35 mins by fluorometric analysis; conditions: Mycolicibacterium smegmatis MC2 155
[10] = biological target: T1, Multidrug efflux pump LfrA (Mycobacterium smegmatis (strain ATCC 700084 / mc(2)155)); assay: Inhibition of LfrA in Mycobacterium smegmatis MC2 155 ATCC 700084 assessed as decrease in norfloxacin MIC at 25 ug/ml after 72 hrs by MTT assay relative to control; conditions: Mycolicibacterium smegmatis MC2 155
[11] = biological target: T1, Multidrug efflux pump LfrA (Mycobacterium smegmatis (strain ATCC 700084 / mc(2)155)); assay: Inhibition of LfrA in Mycobacterium smegmatis MC2 155 ATCC 700084 assessed as decrease in EtBr MIC at 0.78 ug/ml after 72 hrs by MTT assay relative to control; conditions: Mycolicibacterium smegmatis MC2 155
[12] = biological target: T1, Multidrug efflux pump LfrA (Mycobacterium smegmatis (strain ATCC 700084 / mc(2)155)); assay: Inhibition of LfrA in Mycobacterium smegmatis MC2 155 ATCC 700084 assessed as decrease in EtBr MIC at 3.125 ug/ml after 72 hrs by MTT assay relative to control; conditions: Mycolicibacterium smegmatis MC2 155
[13] = biological target: T1, Multidrug efflux pump LfrA (Mycobacterium smegmatis (strain ATCC 700084 / mc(2)155)); assay: Inhibition of LfrA in Mycobacterium smegmatis MC2 155 ATCC 700084 assessed as potentiation of EtBr-induced bactericidal activity at 100 ug/ml after 24 hrs; conditions: Mycolicibacterium smegmatis MC2 155
[14] = biological target: T1, Multidrug efflux pump LfrA (Mycobacterium smegmatis (strain ATCC 700084 / mc(2)155)); assay: Inhibition of LfrA in Mycobacterium smegmatis MC2 155 ATCC 700084 assessed as potentiation of EtBr-induced bactericidal activity at 2 ug/ml after 24 hrs; conditions: Mycolicibacterium smegmatis MC2 155
[15] = biological target: T1, Multidrug efflux pump LfrA (Mycobacterium smegmatis (strain ATCC 700084 / mc(2)155)); assay: Inhibition of LfrA in Mycobacterium smegmatis MC2 155 ATCC 700084 assessed as potentiation of EtBr-induced bactericidal activity at 2 ug/ml after 48 hrs; conditions: Mycolicibacterium smegmatis MC2 155
[16] = biological target: T1, Multidrug efflux pump LfrA (Mycobacterium smegmatis (strain ATCC 700084 / mc(2)155)); assay: Inhibition of LfrA in Mycobacterium smegmatis MC2 155 ATCC 700084 assessed as increase in norfloxacin accumulation at 25 ug/ml measured every 5 mins for 35 mins by fluorometric analysis; conditions: Mycolicibacterium smegmatis MC2 155
[17] = biological target: T1, Multidrug efflux pump LfrA (Mycobacterium smegmatis (strain ATCC 700084 / mc(2)155)); assay: Inhibition of LfrA in Mycobacterium smegmatis MC2 155 ATCC 700084 assessed as potentiation of norfloxacin-induced bactericidal activity at 100 ug/ml after 48 hrs; conditions: Mycolicibacterium smegmatis MC2 155
[18] = biological target: T1, Multidrug efflux pump LfrA (Mycobacterium smegmatis (strain ATCC 700084 / mc(2)155)); assay: Inhibition of LfrA in Mycobacterium smegmatis MC2 155 ATCC 700084 assessed as potentiation of norfloxacin-induced bactericidal activity at 12.5 ug/ml after 48 hrs; conditions: Mycolicibacterium smegmatis MC2 155

Row | Structure (SMILES) | MIC [1] | fold change (FC) [2] | fractional inhibitory concentration index (FICI) [2] | fold change (FC) [3] | fractional inhibitory concentration index (FICI) [3] | Activity (CC-1) | viability at 24 h, 100 ug/ml [6] | viability at 24 h, 50 ug/ml [7] | inhibition [8] | Activity [9] | fold change (FC) [10] | fractional inhibitory concentration index (FICI) [10] | further results
1 | O=c1c2ccc(F)cc2nc2ccccn12 | 200 µg/mL (≈ 934 µM) | 2 | 0.56 |  |  |  |  |  |  |  |  |  | 
2 | O=c1c2cccc(Cl)c2nc2c(Cl)cccn12 | 200 µg/mL (≈ 754 µM) |  |  | 16 | 0.56 | > 50% | 92% | 95% | Active | > 355 FU |  |  | fold change (FC) [4]: 4; fractional inhibitory concentration index (FICI) [4]: 0.55; Activity (deltalog10CFU/ml) [5]: 7
3 | O=c1c2cccc(Cl)c2nc2c3ccccc3ccn12 | 200 µg/mL (≈ 712 µM) |  |  | 2 | 1 |  |  |  |  |  | 4 | 0.37 | 
4 | Cc1cccn2c(=O)c3cc(Br)ccc3nc12 | 200 µg/mL (≈ 692 µM) |  |  |  |  |  |  |  |  |  | 4 | 0.37 | fold change (FC) [11]: 2; fractional inhibitory concentration index (FICI) [11]: 0.3
5 | Cc1ccn2c(=O)c3cccc(Cl)c3nc2c1 | 200 µg/mL (≈ 817 µM) |  |  |  |  |  |  |  |  |  | 4 | 0.37 | fold change (FC) [12]: 2; fractional inhibitory concentration index (FICI) [12]: 0.5
6 | O=c1c2ccccc2nc2c(F)cc(F)cn12 | 200 µg/mL (≈ 861 µM) | 4 | 0.3 | 16 | 0.5 | > 50% | 52% | 80% | Active | > 255 FU |  |  | inhibition [13]: Active
7 | Cc1cccn2c(=O)c3cccc(Cl)c3nc12 | 200 µg/mL (≈ 817 µM) |  |  | 8 | 0.62 | > 50% | 42% | 40% | Active | 400 FU | 4 | 0.37 | Activity (deltalog10CFU/ml) [14]: 7; Activity (deltalog10CFU/ml) [15]: > 3; inhibition [16]: Active
8 | O=c1c2cccc(Cl)c2nc2ccc(F)cn12 | 200 µg/mL (≈ 804 µM) |  |  | 8 | 0.62 | > 50% | 86% | 84% | Active | > 500 FU |  |  | fold change (FC) [4]: 4; fractional inhibitory concentration index (FICI) [4]: 0.55; inhibition [13]: Active
9 | O=c1c2cccc(F)c2nc2ccccn12 | 200 µg/mL (≈ 934 µM) | 16 | 0.12 |  |  | > 50% | 93% | 96% |  |  |  |  | fold change (FC) [11]: 2; fractional inhibitory concentration index (FICI) [11]: 0.3; Activity (deltalog10CFU/ml) [17]: 4; Activity (deltalog10CFU/ml) [18]: 4; Activity [16]: 3000 FU
